Measurements reported in publication PMC7036548 (Cellular and Molecular Gastroenterology and Hepatology, 2019).

Columns and labels:
[1] = biological target: T1, DOR-eGFP (Mus musculus, UniProt P32300); test: DOR-eGFP internalization, confocal imaging; conditions: agonist; control 73.8 ± 2.6%; myenteric neurons of colon
[2] = biological target: T1, DOR-eGFP; test: DOR-eGFP internalization, confocal imaging; conditions: agonist, 1 μmol/L; blocked by naltrindole
[3] = biological target: human MOR (CHO cells) (Homo sapiens, UniProt P35372); test: […]GTPγS binding, CHO membranes; format: biochemical; conditions: 10 μmol/L GDP, pH 7.4, RT; no G protein activation
Sequence of human MOR (CHO cells) (P35372 whole entry): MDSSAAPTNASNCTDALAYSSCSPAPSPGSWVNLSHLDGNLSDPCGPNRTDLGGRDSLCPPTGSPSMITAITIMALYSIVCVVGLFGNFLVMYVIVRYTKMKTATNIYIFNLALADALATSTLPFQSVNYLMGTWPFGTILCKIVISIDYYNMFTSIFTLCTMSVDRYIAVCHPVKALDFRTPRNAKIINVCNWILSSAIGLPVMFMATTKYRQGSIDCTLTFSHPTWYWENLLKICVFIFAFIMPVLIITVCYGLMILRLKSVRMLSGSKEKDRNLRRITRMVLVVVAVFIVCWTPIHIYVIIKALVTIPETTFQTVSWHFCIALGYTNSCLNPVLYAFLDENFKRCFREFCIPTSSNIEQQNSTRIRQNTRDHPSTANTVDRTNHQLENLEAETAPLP

T1 sequence (P32300 whole entry): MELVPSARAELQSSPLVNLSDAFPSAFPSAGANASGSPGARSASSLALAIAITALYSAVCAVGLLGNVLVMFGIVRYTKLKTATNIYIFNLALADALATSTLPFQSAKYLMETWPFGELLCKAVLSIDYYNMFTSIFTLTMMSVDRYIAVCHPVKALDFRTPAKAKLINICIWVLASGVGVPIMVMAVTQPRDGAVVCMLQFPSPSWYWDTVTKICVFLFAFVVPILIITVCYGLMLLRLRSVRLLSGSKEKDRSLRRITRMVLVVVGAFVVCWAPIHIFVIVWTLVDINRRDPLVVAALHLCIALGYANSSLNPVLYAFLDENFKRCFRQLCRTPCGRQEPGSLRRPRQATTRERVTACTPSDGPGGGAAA

| SMILES | % cell surface DOR-eGFP at 1 μmol/L [1] | DOR-eGFP internalization, confocal imaging [2] | [35S]GTPγS binding, CHO membranes [3] |
| --- | --- | --- | --- |
| C=CCN1C[C@H](C)N([C@H](c2ccc(C(=O)N(CC)CC)cc2)c2cccc(OC)c2)C[C@H]1C [SNC80] | 41.9 ± 2.9% |  |  |
| CCOC(=O)C1(CCc2ccccc2)CCN(Cc2ccc(NC(C)=O)cc2)CC1 [CYM51010] |  | CYM51010 promoted robust internalization of DOR-eGFP in both myenteric and submucosal neurons | increase in G protein activation only in DOR expressing CHO cells |
